For series [1], the system named is Mast/stem cell growth factor receptor Kit (Homo sapiens), P10721 [V560G,D816V]. Description: Inhibition of human c-KIT A loop exon 11/17 V560G/D816V double mutant at 10 nM using poly (Glu,Tyr) 4:1 as substrate in presence of 33P-gamma-ATP by hotspot kinase assay relative to control.
Series [2] concerns Mast/stem cell growth factor receptor Kit (Homo sapiens), P10721 [D816V]. The settings on record: at 10 nM.
Description: Inhibition of human c-KIT A loop exon 17 D816V single mutant at 10 nM using poly (Glu,Tyr) 4:1 as substrate in presence of 33P-gamma-ATP by hotspot kinase assay relative to control
Series [3] relates to GIST430. Description: Antitumor activity against human GIST430 cells harboring c-KIT exon 11 primary in-frame V560-L576 deletion mutant and exon 13 heterozygous secondary missense V654A mutant xenografted in NOD-SCID mouse assessed as reduction in tumor size at 25, po administered for 2 weeks with 2 days rest after day 5 and measured thrice per week up to 14 days during compound dosing relative to control. It is filed as functional. On the set-up: scale not given: the % may be the effect or the level left.

A short description of series [4]: Antiproliferative activity against human GIST62 cells assessed as reduction in cell viability by methylene blue staining based assay. It is filed as functional.
Series [5] is described as follows: Half life in ICR mouse at 10 mg/kg, po administered as single dose measured up to 24 hrs by LC-MS/MS analysis. It is filed as ADME, organism-based. The settings on record: in vivo.
Series [6] has as its target Mast/stem cell growth factor receptor Kit (Homo sapiens, UniProt P10721, D816V). Description: Inhibition of human c-KIT A loop exon 17 D816V single mutant using poly (Glu,Tyr) 4:1 as substrate in presence of 33P-gamma-ATP by hotspot kinase assay.
Series [7] relates to GIST430. Description: Antitumor activity against human GIST430 cells harboring c-KIT exon 11 primary in-frame V560-L576 deletion mutant and exon 13 heterozygous secondary missense V654A mutant xenografted in NOD-SCID mouse assessed as tumor growth inhibition at 25 mg/kg, po administered for 2 weeks with 2 days rest after day 5 and measured thrice per week up to 21 days during compound dosing. The series is classed as functional, organism-based.

Series [8] concerns the target Mast/stem cell growth factor receptor Kit (Homo sapiens, UniProt P10721, V560G). Description: Inhibition of human c-KIT JM domain exon 11 V560G single mutant using poly (Glu,Tyr) 4:1 as substrate in presence of 33P-gamma-ATP by hotspot kinase assay.
The test system of series [9] is Mast/stem cell growth factor receptor Kit (Homo sapiens), P10721 [D820Y]. The settings on record: at 10 nM.
Description: Inhibition of human c-KIT A loop exon 17 D820Y single mutant at 10 nM using poly (Glu,Tyr) 4:1 as substrate in presence of 33P-gamma-ATP by hotspot kinase assay relative to control
Series [10] concerns Mast/stem cell growth factor receptor Kit (Homo sapiens), P10721 [A829P]. Description: Inhibition of human c-KIT A loop exon 18 A829P single mutant at 100 nM using poly (Glu,Tyr) 4:1 as substrate in presence of 33P-gamma-ATP by hotspot kinase assay relative to control.
Series [11] has as its system Mast/stem cell growth factor receptor Kit (Homo sapiens), P10721 [V560G,D816V]. Description: Inhibition of human c-KIT A loop exon 11/17 V560G/D816V double mutant at 100 nM using poly (Glu,Tyr) 4:1 as substrate in presence of 33P-gamma-ATP by hotspot kinase assay relative to control.
Series [12] concerns Mast/stem cell growth factor receptor Kit (Homo sapiens), P10721 [V654A]. Description: Inhibition of human c-KIT ATP binding domain exon 13 V654A single mutant at 10 nM using poly (Glu,Tyr) 4:1 as substrate in presence of 33P-gamma-ATP by hotspot kinase assay relative to control.
Series [13] has as its system Mast/stem cell growth factor receptor Kit (Homo sapiens), P10721 [D820Y]. The settings on record: at 100 nM.
Description: Inhibition of human c-KIT A loop exon 17 D820Y single mutant at 100 nM using poly (Glu,Tyr) 4:1 as substrate in presence of 33P-gamma-ATP by hotspot kinase assay relative to control
In series [14] the test system is Mus musculus. Description: Decrease in c-KIT phosphorylation in NOD-SCID mouse xenografted with human GIST430 cells harboring c-KIT exon 11 primary in-frame V560-L576 deletion mutant and exon 13 heterozygous secondary missense V654A mutant at 80 mg/kg, po measured after 8 hrs by immunoblotting analysis relative to control. It is filed as functional.
Series [15] deals with Mast/stem cell growth factor receptor Kit (Homo sapiens), P10721 [D816V]. The settings on record: at 100 nM.
Description: Inhibition of human c-KIT A loop exon 17 D816V single mutant at 100 nM using poly (Glu,Tyr) 4:1 as substrate in presence of 33P-gamma-ATP by hotspot kinase assay relative to control
Series [16] concerns the target Mast/stem cell growth factor receptor Kit (Homo sapiens, UniProt P10721). Description: Inhibition of recombinant human N-terminal 6x-His-tagged c-KIT (547 to 935 residues)/(694 to 753 residues deletion) expressed in baculovirus infected Sf9 insect cells assessed as decrease in poly (Glu,Tyr) 4:1 phosphorylation measured after 150 mins in presence of ATP by ADP-glo based luminescence assay.

Activity calls are given as the source filed them. No cut-off for these calls is given here. Bounds are passed on as bounds.

Sequence of Mast/stem cell growth factor receptor Kit (Homo sapiens), P10721 [V560G,D816V] (P10721 whole entry V560G/D816V, the tested form may be a part): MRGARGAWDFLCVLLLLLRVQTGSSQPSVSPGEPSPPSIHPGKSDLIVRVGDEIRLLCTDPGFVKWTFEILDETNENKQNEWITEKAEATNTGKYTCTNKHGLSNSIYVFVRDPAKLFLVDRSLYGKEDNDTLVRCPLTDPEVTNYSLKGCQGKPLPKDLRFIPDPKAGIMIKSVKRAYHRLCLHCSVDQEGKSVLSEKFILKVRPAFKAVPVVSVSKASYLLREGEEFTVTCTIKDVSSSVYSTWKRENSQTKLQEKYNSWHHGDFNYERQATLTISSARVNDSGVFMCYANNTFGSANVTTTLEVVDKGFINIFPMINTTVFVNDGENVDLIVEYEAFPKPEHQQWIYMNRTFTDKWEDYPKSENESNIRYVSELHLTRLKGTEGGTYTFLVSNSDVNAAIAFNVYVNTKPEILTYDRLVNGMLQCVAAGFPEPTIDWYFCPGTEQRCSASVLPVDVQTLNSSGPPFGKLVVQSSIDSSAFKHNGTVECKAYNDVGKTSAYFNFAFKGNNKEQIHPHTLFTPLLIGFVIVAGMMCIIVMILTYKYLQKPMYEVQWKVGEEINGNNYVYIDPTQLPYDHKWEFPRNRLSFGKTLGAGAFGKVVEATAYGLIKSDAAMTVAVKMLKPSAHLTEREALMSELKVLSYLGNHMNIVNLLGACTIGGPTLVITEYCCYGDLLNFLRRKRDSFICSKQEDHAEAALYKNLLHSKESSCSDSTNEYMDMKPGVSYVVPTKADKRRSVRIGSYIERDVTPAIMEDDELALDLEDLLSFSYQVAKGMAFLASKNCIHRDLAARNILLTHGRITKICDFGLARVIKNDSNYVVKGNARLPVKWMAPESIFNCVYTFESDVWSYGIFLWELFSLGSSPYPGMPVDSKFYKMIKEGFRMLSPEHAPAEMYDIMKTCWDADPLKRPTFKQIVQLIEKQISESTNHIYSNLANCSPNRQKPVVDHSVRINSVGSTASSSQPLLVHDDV
Sequence of Mast/stem cell growth factor receptor Kit (Homo sapiens), P10721 [D816V] (P10721 whole entry D816V, the tested form may be a part): as the sequence (P10721 whole entry V560G/D816V, the tested form may be a part) above, with G560V counted along it
Sequence of Mast/stem cell growth factor receptor Kit (Homo sapiens), P10721 [D820Y] (P10721 whole entry D820Y): as the sequence (P10721 whole entry V560G/D816V, the tested form may be a part) above, with G560V, V816D, D820Y counted along it
Sequence of Mast/stem cell growth factor receptor Kit (Homo sapiens), P10721 [V654A] (P10721 whole entry V654A, the tested form may be a part): as the sequence (P10721 whole entry V560G/D816V, the tested form may be a part) above, with G560V, V654A, V816D counted along it
Sequence of Mast/stem cell growth factor receptor Kit (Homo sapiens), P10721 [A829P] (P10721 whole entry A829P): as the sequence (P10721 whole entry V560G/D816V, the tested form may be a part) above, with G560V, V816D, A829P counted along it
Sequence of Mast/stem cell growth factor receptor Kit (Homo sapiens, UniProt P10721, V560G) (P10721 26-976 V560G limits assumed): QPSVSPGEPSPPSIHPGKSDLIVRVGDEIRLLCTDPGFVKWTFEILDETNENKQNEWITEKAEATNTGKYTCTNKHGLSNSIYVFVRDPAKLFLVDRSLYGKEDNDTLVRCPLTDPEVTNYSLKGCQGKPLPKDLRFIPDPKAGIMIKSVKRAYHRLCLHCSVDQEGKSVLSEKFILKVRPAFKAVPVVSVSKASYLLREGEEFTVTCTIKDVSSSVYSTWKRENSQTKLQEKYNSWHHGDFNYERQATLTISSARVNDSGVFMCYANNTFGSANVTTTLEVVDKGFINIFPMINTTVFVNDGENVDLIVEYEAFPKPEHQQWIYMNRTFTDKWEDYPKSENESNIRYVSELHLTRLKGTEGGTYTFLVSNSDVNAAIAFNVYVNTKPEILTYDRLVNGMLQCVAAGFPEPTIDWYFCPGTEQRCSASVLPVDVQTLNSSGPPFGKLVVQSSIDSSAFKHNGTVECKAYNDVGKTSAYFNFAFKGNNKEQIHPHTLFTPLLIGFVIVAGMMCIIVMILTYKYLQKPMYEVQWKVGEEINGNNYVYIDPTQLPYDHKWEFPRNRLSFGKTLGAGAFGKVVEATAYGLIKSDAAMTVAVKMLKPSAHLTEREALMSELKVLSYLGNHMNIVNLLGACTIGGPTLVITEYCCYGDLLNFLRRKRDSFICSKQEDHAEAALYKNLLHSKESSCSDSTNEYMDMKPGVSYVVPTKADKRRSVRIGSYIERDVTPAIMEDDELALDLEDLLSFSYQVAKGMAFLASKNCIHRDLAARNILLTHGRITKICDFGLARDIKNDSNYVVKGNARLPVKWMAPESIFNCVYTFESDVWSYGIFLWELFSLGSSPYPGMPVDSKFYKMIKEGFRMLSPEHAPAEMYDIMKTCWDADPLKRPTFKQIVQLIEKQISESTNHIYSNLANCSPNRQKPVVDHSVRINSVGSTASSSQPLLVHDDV
Sequence of Mast/stem cell growth factor receptor Kit (Homo sapiens, UniProt P10721, D816V) (P10721 26-976 D816V limits assumed): as the sequence (P10721 26-976 V560G limits assumed) above, with G535V, D791V counted along it

Take `CCc1cc(NC(=O)Nc2ccc(-c3cnc(Nc4cc(N5CCN(CC)CC5)ncn4)s3)cc2)no1`: the inhibition in series [1] turned out to be 22%; in series [2], 37%; in series [9] it was 99%; in series [10] it was 99%; in series [11] it was 63%; in [12], 43%. The inhibition in series [13] is 100%; in series [15], 73%. Also, the Activity in [3] is recorded as 59%. The concentration for 50% growth inhibition (GI50) in series [4] is above 100 nM. Further, in [5], the half-life was 2.8 h. The half-inhibitory concentration (IC50) was 8.56 nM in [6], 0.98 nM in series [8] and 82 nM in [16]. Also, in series [7], the TGI result was “Active”. In series [14], this compound showed an inhibition in vivo at 80 mg/kg of 95.9%.

Source of the values: ChEMBL document CHEMBL4385613, “Discovery of Conformational Control Inhibitors Switching off the Activated c-KIT and Targeting a Broad Range of Clinically Relevant c-KIT Mutants” (J Med Chem, 2019).
